Laboratory results as given in patent publication US7498300B2, “CRFR1 selective ligands” (The Salk Institute for Biological Studies, priority 2001, dated 2009).

Tests used:
human CRFR1 = target: T1, human CRFR1 (Homo sapiens, UniProt P34998); assay: Competitive binding assay, CHO cells stably expressing human CRFR1, displacement of 125I-(Nle21,Tyr32) ovine CRF
T1 construct: expressed in transfected cells
T1 sequence (P34998 24-415): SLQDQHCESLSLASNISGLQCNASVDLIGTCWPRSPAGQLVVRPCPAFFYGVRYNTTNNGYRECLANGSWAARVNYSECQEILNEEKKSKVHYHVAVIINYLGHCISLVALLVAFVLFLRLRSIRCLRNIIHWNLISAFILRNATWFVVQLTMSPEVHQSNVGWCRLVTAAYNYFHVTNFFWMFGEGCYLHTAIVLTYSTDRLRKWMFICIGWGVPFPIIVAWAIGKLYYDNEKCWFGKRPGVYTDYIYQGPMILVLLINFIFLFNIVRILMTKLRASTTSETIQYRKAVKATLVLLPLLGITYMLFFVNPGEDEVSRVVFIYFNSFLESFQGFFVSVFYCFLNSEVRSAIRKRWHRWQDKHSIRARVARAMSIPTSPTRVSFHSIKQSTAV
Experimental: Binding affinity is a term used to refer to the strength of interaction between ligand and receptor. […] Ki (inhibitory binding affinity constant) is determined using a “standard” or “tracer” radioactive ligand and thus measures the displacement of the tracer from the receptor or binding protein; it is most properly expressed with reference to such tracer. However, so long as these assays are carefully performed under specific conditions with relatively low concentrations of receptor or the like, the calculated Ki will be substantially the same as its dissociation constant KD. […] It is particularly efficient to test for Ki because only a single tracer need be labelled, e.g. radioiodinated.
Binding assays with cells expressing human CRFR1 are carried out as described in the Chen et al. P.N.A.S., supra. The affinities of test peptides for CRFR1 and CRFR2 stably expressed in CHO cells were determined by competitive displacement of ^125I-(Nle^21, Tyr^32) ovine CRF (for CRFR1) or of [^125I-Tyr^o-]Ucn (for CRFR2) as described.

human CRFR2 = target: T2, human CRFR2 (Homo sapiens, UniProt Q13324); assay: Competitive binding assay, CHO cells stably expressing human CRFR2, displacement of [125I-Tyr0]Ucn
T2 construct: expressed in transfected cells
T2 sequence (Q13324 1-411): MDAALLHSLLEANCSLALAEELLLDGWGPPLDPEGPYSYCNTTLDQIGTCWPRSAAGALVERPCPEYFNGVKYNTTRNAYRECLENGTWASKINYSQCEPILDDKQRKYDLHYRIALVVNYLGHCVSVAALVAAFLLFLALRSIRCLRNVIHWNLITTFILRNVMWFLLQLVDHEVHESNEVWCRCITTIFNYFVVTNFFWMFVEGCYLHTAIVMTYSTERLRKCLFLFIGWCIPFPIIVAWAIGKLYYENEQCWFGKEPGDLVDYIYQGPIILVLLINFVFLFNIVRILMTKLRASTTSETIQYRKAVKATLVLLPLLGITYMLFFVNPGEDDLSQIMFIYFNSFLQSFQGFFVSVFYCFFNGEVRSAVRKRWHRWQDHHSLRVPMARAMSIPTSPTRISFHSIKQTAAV
Experimental: The affinities of test peptides for CRFR1 and CRFR2 stably expressed in CHO cells were determined by competitive displacement of ^125I-(Nle^21, Tyr^32) ovine CRF (for CRFR1) or of [^125I-Tyr^o-]Ucn (for CRFR2) as described.

[1] = tested on: cultured rat pituitary cells; assay: In vitro stimulation of ACTH and β-endorphin secretion by cultured rat pituitary cells; type: cell-based
Experimental: (§1) In vivo testing is carried out using the general procedure set forth in C.

[2] = In vivo lowering of blood pressure on peripheral administration; conditions: administered peripherally
Experimental: as §1

CRFR2 = CRFR2 (Mus musculus, UniProt Q60748); conditions: Ruhmann et al., P.N.A.S. 95, 15264-15269 (1998); cited from earlier work
Chain of CRFR2 (Q60748 27-431 isoform Q60748-2 limits assumed): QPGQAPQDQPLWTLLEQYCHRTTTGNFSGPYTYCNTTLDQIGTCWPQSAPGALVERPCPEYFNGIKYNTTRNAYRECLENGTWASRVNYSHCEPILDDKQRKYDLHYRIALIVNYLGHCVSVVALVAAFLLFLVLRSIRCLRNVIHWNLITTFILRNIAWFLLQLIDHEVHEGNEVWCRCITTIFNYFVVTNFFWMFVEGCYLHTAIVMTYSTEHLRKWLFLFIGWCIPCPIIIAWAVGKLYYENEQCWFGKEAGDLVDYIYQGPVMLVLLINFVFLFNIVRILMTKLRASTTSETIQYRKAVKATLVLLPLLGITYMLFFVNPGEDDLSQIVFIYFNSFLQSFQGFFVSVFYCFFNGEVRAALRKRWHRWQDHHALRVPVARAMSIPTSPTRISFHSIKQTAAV

Row | Substance | binding to CRFR1 (in words) (human CRFR1) | binding to CRFR2 (in words) (human CRFR2) | stimulation of the secretion of ACTH and β-END-LI [1] | lowering of blood pressure [2] | antagonism for CRFR2 compared with the previously best reported compound (CRFR2)
1 | (cyclo 31-34)[Ac-Pro^4, D-Phe^12, Nle^21,38, CML^27, Glu^31, Lys^34]-r/hCRF(4-41) [Example 5 C] | binds strongly | only very weakly | stimulates | very significant lowering of blood pressure | –
2 | (cyclo 31-34)[Ac-Pro^4, D-Phe^12, Nle^21,38, Glu^31, Aib^33, Lys^34]-r/hCRF(4-41) [Example 4] | bind strongly | only very weaker | strongly stimulates | very significant lowering of blood pressure | –
3 | (cyclo 31-34)[Ac-Pro^4, D-Phe^12, Nle^21,38, Glu^31, Lys^34, CML^37]-r/hCRF(4-41) [Example 5 D] | binds strongly | only very weakly | stimulates | very significant lowering of blood pressure | –
4 | (cyclo 31-34)[Ac-Pro^4, D-Phe^12, Nle^21,38, Glu^31, Lys^34]-oCRF(4-41) [Example 2] | bind strongly | poorly | strongly stimulates | very significant lowering of blood pressure | –
5 | (cyclo 31-34)[Ac-Pro^4, D-Phe^12, Nle^21,38, Glu^31, Lys^34]-porcine CRF(4-41) [Example 3 C] | binds strongly | only very weakly | stimulates | very significant lowering of blood pressure | –
6 | [D-Phe^11, His^12]-sauvagine(11-40) | – | – | – | – | close to equal antagonism
